Measured values as given in US20170296459A1, “METHOD OF IMPROVING THE APPEARANCE OF PERIORBITAL DYSCHROMIA” (The Procter & Gamble Company, priority 2016, published 2017).

System: B16-F1 mouse melanoma cell line
Assay: B16 melanin synthesis inhibition assay
Assay type: cell-based
Conditions: B16-F1 cells, OD at 410 nm
Protocol: In this example, a commercially available B16-F1 mouse melanoma cell line from American Tissue Culture Collection, Virginia, USA was employed in a conventional melanin synthesis inhibition assay. The cell culture medium used in the assay is 500 mL of Dulbecco's Modified Eagle's Medium (DMEM), 50 mL Fetal Bovine Serum (FBS), and 5 mL of penicillin-streptomycin liquid. B16-F1 cells that are cultured in this medium and grown to greater than 90% confluency will synthesize melanin. While not intending to be bound by any theory, it is hypothesized that the melanin synthesis is stimulated by the culture medium and/or stress induced by growth to a high confluency. […] Equipment used in the assay include a CO2 incubator, such as a Forma Series Model 3110 by Therma Scientific, Massachusetts, USA; a hemocytometer, such as a Bright Line model by Hauser Scientific, Pennsylvania, USA; and a UV-Visible Spectrum Plate Reader, such as a SpectraMax250 from Molecular Devices, California, USA. […] Day 3: The cells from the T-150 flask are trypsinized, and the concentration of cells is determined using the hemacytometer. […] Read the 96 well plate using the UV-Vis Plate Reader at 410 nm to optically measure the amount of melanin produced between wells that are treated with the fava bean extract and control wells that are not. […] The concentration of test agent needed to provide the IC 50 is recorded.

Concentration Needed for IC 50 [v/v] | Compound
0.01 | O=c1cc(CO)occ1O [Kojic Acid]
0.008 | Oc1ccc(OC2CCCCO2)cc1 (centres unmarked) [Deoxyarbutin]
